The nature of the assay: Antagonist activity at CCR2 receptor in human monocytes assessed as inhibition of MCP1-mediated chemotaxis.

The values that follow come from BindingDB's records for doi:10.1016/j.bmcl.2007.12.029 (Merck Research Laboratories, 2008).

As to `CC(C)(O)[C@]1(C(=O)NCc2cc(C(F)(F)F)cc(C(F)(F)F)c2)CC[C@@H](N2CCC(c3cncnc3)CC2)C1` [(1S,3R)-N-(3,5-bis(trifluoromethyl)benzyl)-1-(2-hydroxypropan-2-yl)-3-(4-(pyrimidin-5-yl)piperidin-1-yl)cyclopentanecarboxamide], the half-maximal inhibitory concentration (IC50) amounted to 2 nM.

`CC(C)[C@]1(C(=O)NCc2cc(C(F)(F)F)cc(C(F)(F)F)c2)CC[C@@H](N2CCC(c3cncnc3)CC2)C1` [N-(3,5-bis(trifluoromethyl)benzyl)-1-isopropyl-3-(4-(pyrimidin-5-yl)piperidin-1-yl)cyclopentanecarboxamide]: the half-inhibitory concentration (IC50) is 2 nM.

Broadly, the IC50 is the concentration at which inhibition is half-maximal.
